Measurements: patent publication US11278575B2, “Compositions and methods for the treatment of demyelinating conditions” (Duke University, priority 2018, dated 2022)

Tests used:
[1] = system: DUOC-01 cells; experiment: Stability of day 21 DUOC-01 cells incubated with HC or Dex: viability (AOPI) and total viable cell count; assay type: cell-based, human; conditions: for Averaged total viable cell numbers: DUOC-01 cells in Ringers, HC 3 mg/ml or Dex 25 ng/ml, average of six experiments
Description: FIG. 1 illustrates that HC increases the viability of DUOC-01 cells over time. Viability was measured by AOPI using the Nexcelom Cellometer Auto 2000 (n=6 samples per time point; 2-way ANOVA p<0.001 for treatment factor; Tukey's post-hoc[…]).
(§1) First, to test stability, day +21 DUOC-01 cells were harvested into ringers lactate and incubated with HC for up to 4 hours to determine whether there was any change in viability or stability.
(§2) DUOC-01 cells were cultured using standard procedures from cryopreserved and thawed cord blood units, then harvested on day 21 and re-suspended in Ringers. After initial count and viability, the cell suspension was divided into three conditions: (1) Ringer's solution, (2) 3 mg/ml HC, (3) 25 ng/ml Dex.
(§3) Based on previous stability studies, the cells were incubated for 4 hours at room temperature and characterized every hour for 4 hours. The viability of DUOC-01 cells over time was consistently greater with cells incubated with HC compared to DUOC-01 cells incubated with dexamethasone or Ringer's solution (FIG. 1).

[2] = system: corpus callosum of NSG mice treated with cuprizone; experiment: Cuprizone demyelination model, myelination score by LFB-PAS staining; assay type: in vivo; conditions: one week after injection into corpus callosum of CPZ-treated mice; 1×10^5 cells; cells incubated 2 hours in 3 mg/ml HC where HC is used
Description: Myelination score based on LFB-PAS staining of mice one week after treatment of CPZ-treated mice with, Ringer's, Ringers+HC, DUOC-01 cells, or DUOC-01 cells exposed to HC (1×10^5 cell injected). […] Two independent, blinded readers scored coded LFB-PAS stained sections at the mid-line corpus callosum area, between zero and 3. Data are presented as mean ±SEM (ANOVA for cells P<0.001; n=9-16 mice per group, *P<0.05, Tukey's post-hoc test; pooled 2 independent experiments). […] DUOC-01 cells were cultured via standard procedures from frozen cord blood units in the GMP facility and harvested on day 21. After initial count and viability, the cell suspension was split into two conditions at a concentration of 20,000 cells/μl: (1) Ringers, and (2) Ringers +3 mg/ml HC. Based on previous stability studies, the cells were incubated in HC for 2 hours at room temperature prior to injections. To determine if HC would affect the ability of DUOC-01 cells to promote remyelination, Ringer's solution or DUOC-01 cells was injected into the corpus callosum of NSG mice treated with cuprizone, as previously described (Saha et al. JCI Insight 2016). One week following treatment, brains were harvested and analysis of myelination by LFB-PAS staining was conducted.

[3] = system: DUOC-01 cells; experiment: Surface marker expression of DUOC-01 cells by flow cytometry after adding HC or Dex; assay type: cell-based, human; conditions: up to 4 hours after adding HC (3 mg/ml) or Dex (25 ng/ml)
Description: DUOC-01 cells were collected 4 hours after adding HC or dexamethasone (Dex). The expression of CD45 (FIG. 2A), CD11b (FIG. 2B), Trem2 (FIG. 2C), and CD14 (FIG. 2D) were analyzed by flow cytometry (n=6 per condition).
as §1, §2, §3

Row | SMILES | Averaged total viable cell numbers ([1]; 1 hr at room temperature) | Averaged total viable cell numbers ([1]; 2 hr at room temperature) | Averaged total viable cell numbers ([1]; 3 hr at room temperature) | Averaged total viable cell numbers ([1]; 4 hr at room temperature) | Remyelination (myelination score, LFB-PAS, mid-line corpus callosum) [2] | Viability of DUOC-01 cells over time (AOPI) ([1]; up to 4 hours, 3 mg/ml HC, compared with dexamethasone or Ringer's solution) | Expression level of DUOC-01 surface markers (CD45, CD14, TREM2, CD11b) [3]
1 | C[C@@H]1C[C@H]2[C@@H]3CCC4=CC(=O)C=C[C@]4(C)[C@@]3(F)[C@@H](O)C[C@]2(C)[C@@]1(O)C(=O)CO [Dexamethazone, dexamethasone] | 923,563 | 813,750 | 821,250 | 706,875 |  |  | 
2 | C[C@]12CCC(=O)C=C1CC[C@@H]1[C@@H]2[C@@H](O)C[C@@]2(C)[C@H]1CC[C@]2(O)C(=O)CO [HC, hydrocortisone] | 959,688 | 821,667 | 910,604 | 742,000 | did not inhibit the ability of DUOC-01 cells to promote remyelination | improved the viability | did not change the expression level
